Source: ChEMBL document CHEMBL5154787 (J Med Chem, 2022)

What was measured:
[1] = target: T1, AP2-associated protein kinase 1 (Homo sapiens, UniProt Q2M2I8); experiment: Inhibition of full length human AAK1 expressed in HEK293F cells assessed as suppression of AP2 phosphorylation measured after 3 hrs by Western blot analysis based cellular assay; assay type: cell-based
Aurora kinase C = Aurora kinase C (Homo sapiens, UniProt Q9UQB9); experiment: Inhibition of AURC (unknown origin)
[2] = target: T1, AP2-associated protein kinase 1; experiment: Inhibition of bacterially expressed GST-Xa-tagged human AAK1 using 5-FAM-labelled Aha-KEEQSQITSQVTGQIGWR-NH2 peptide as substrate incubated for 3 hrs in presence of ATP by electrophoretic analysis
[3] = Metabolic stability in rat liver microsomes assessed as parent compound remaining at 0.5 uM incubated for 10 mins in presence of NADPH by LC-MS/MS analysis; assay type: ADME, Microsome; conditions: read-out: Stability
[4] = Metabolic stability in human liver microsomes assessed as parent compound remaining at 0.5 uM incubated for 10 mins in presence of NADPH by LC-MS/MS analysis; assay type: ADME, Microsome; conditions: read-out: Stability
[5] = Cardiotoxicity in aortic ring (unknown origin) assessed as relaxation of phenylephrine induced aortic ring contraction at 10 uM incubated for 1 hr; assay type: toxicity, tissue-based, Aorta; design: scale not given: the % may be the effect or the level left; conditions: human
[6] = target: MAP kinase-interacting serine/threonine-protein kinase 1 (Homo sapiens, UniProt Q9BUB5); experiment: Inhibition of MNK1 (unknown origin)
Chain of MAP kinase-interacting serine/threonine-protein kinase 1 (Q9BUB5 whole entry): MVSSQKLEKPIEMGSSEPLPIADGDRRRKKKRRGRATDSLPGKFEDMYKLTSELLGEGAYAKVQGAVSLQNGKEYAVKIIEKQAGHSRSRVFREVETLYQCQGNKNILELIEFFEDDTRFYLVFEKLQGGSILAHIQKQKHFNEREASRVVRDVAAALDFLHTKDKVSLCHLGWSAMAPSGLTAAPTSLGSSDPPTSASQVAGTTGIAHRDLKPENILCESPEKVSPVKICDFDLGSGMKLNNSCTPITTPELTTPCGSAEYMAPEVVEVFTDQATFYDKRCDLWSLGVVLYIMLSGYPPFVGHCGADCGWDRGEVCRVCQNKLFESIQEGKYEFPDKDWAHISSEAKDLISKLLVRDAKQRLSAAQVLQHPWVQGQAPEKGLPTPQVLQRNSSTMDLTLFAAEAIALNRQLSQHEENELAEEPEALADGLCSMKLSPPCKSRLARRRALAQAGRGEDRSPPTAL

[7] = target: AP2-associated protein kinase 1 (Mus musculus, UniProt Q3UHJ0); experiment: Displacement of 3H-LP-927443 from AAK1 in C57BL6 mouse brain homogenate assessed as inhibition constant incubated for 1 hr by liquid scintillation counter analysis; assay type: tissue-based
Chain of AP2-associated protein kinase 1 (Mus musculus, UniProt Q3UHJ0) (Q3UHJ0 whole entry): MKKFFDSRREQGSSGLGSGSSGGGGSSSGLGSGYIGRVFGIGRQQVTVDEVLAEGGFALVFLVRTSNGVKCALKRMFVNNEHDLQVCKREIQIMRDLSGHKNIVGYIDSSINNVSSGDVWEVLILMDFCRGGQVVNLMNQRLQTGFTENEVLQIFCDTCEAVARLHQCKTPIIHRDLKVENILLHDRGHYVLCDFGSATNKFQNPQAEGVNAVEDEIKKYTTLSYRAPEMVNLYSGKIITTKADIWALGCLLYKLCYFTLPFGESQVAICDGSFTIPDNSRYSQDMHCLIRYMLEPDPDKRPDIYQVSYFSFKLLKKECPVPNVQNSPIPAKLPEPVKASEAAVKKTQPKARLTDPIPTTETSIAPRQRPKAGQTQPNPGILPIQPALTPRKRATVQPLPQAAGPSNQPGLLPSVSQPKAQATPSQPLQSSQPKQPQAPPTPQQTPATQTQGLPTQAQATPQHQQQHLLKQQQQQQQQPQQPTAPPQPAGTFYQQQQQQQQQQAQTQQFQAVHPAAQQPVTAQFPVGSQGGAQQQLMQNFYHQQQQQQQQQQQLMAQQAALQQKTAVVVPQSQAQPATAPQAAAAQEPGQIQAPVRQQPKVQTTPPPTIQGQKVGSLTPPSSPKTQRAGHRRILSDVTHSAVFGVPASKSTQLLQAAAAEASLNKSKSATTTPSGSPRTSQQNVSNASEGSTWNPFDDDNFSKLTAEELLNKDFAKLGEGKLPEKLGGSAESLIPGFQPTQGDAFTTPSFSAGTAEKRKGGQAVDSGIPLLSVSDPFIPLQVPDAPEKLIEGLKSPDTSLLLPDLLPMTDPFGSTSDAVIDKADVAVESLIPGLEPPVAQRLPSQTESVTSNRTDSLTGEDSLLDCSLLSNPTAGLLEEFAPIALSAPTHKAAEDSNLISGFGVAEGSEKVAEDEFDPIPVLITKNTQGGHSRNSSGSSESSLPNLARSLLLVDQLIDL

[8] = target: Protein kinase C beta type (Homo sapiens, UniProt P05771); experiment: Inhibition of PKCb2 (unknown origin)
Chain of Protein kinase C beta type (P05771 whole entry): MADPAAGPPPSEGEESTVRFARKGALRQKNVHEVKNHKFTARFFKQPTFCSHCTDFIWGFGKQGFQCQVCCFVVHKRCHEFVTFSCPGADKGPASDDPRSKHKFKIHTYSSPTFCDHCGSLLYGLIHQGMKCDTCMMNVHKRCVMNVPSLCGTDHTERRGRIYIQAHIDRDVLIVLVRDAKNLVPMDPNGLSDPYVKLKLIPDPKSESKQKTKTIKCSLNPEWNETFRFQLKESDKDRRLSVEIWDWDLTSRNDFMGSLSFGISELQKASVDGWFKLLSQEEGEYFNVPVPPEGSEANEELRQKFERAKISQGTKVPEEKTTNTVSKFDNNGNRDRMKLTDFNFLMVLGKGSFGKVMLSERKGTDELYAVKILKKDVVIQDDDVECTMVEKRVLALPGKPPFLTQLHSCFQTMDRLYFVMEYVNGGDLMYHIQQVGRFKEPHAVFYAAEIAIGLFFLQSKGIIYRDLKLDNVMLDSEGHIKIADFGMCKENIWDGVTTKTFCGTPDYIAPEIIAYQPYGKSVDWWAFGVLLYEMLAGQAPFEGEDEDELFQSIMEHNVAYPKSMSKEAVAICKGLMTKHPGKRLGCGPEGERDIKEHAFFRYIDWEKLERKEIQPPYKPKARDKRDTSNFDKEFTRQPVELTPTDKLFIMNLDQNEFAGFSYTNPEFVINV

[9] = target: BMP-2-inducible protein kinase (Homo sapiens, UniProt Q9NSY1); experiment: Inhibition of BIKE (unknown origin)
Chain of BMP-2-inducible protein kinase (Q9NSY1 whole entry): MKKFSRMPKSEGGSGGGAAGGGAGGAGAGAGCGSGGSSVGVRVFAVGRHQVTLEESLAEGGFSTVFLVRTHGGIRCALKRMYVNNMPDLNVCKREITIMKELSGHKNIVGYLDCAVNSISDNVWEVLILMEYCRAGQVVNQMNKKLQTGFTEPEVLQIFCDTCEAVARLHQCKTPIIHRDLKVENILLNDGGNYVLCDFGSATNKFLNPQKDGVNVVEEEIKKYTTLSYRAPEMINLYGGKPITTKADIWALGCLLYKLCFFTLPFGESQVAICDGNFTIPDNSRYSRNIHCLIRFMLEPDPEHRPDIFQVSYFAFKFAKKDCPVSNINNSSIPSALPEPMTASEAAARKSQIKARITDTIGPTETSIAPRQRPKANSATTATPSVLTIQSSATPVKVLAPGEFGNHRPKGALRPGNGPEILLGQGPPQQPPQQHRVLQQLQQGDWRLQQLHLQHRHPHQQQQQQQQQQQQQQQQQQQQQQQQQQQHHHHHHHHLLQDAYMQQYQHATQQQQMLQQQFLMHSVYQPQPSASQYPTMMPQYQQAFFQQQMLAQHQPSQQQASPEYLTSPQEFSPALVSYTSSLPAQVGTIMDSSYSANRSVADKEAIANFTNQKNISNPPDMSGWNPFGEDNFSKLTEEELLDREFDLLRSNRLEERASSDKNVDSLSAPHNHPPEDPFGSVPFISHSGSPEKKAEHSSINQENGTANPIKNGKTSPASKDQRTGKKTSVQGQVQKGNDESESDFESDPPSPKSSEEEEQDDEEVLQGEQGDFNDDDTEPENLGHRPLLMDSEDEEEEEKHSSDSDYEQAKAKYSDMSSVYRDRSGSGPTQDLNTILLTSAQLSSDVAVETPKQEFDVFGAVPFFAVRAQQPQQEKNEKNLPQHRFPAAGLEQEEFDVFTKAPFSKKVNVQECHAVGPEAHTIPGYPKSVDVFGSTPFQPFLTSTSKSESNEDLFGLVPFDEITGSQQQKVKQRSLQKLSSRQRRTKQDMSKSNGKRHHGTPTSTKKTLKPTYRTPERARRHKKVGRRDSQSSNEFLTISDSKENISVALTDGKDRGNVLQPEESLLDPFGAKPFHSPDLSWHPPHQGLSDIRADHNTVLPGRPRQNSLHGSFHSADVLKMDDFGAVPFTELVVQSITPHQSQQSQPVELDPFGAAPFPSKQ

Cytochrome P450 3A4 = Cytochrome P450 3A4 (Homo sapiens, UniProt P08684); experiment: Inhibition of CYP3A4 (unknown origin) incubated for 10 mins in presence of NADPH by LC-MS/MS analysis; assay type: ADME
Chain of Cytochrome P450 3A4 (P08684 whole entry): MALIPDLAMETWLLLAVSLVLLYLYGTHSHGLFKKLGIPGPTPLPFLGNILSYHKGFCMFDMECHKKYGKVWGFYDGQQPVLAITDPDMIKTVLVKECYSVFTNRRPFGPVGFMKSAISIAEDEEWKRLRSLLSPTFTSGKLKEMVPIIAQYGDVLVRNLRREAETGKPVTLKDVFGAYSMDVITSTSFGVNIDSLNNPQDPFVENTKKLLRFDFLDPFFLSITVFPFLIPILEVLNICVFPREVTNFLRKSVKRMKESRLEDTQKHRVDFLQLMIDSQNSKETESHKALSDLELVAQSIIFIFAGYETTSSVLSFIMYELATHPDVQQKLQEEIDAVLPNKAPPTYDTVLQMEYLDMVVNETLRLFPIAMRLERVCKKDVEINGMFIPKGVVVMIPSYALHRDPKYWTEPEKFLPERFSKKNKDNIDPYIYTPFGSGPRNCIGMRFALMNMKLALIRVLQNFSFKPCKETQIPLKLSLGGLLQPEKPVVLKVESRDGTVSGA

[10] = Metabolic stability in mouse liver microsomes assessed as parent compound remaining at 0.5 uM incubated for 10 mins in presence of NADPH by LC-MS/MS analysis; assay type: ADME, Microsome; conditions: liver microsomes, read-out: Stability
[11] = target: Myosin light chain kinase 2, skeletal/cardiac muscle (Homo sapiens, UniProt Q9H1R3); experiment: Inhibition of MYLK2 (unknown origin)
[12] = target: Citron Rho-interacting kinase (Homo sapiens, UniProt O14578); experiment: Inhibition of CRIK (unknown origin)
[13] = Inhibition of IGFR (unknown origin); design: species or system Homo sapiens

T1 sequence (Q2M2I8 whole entry): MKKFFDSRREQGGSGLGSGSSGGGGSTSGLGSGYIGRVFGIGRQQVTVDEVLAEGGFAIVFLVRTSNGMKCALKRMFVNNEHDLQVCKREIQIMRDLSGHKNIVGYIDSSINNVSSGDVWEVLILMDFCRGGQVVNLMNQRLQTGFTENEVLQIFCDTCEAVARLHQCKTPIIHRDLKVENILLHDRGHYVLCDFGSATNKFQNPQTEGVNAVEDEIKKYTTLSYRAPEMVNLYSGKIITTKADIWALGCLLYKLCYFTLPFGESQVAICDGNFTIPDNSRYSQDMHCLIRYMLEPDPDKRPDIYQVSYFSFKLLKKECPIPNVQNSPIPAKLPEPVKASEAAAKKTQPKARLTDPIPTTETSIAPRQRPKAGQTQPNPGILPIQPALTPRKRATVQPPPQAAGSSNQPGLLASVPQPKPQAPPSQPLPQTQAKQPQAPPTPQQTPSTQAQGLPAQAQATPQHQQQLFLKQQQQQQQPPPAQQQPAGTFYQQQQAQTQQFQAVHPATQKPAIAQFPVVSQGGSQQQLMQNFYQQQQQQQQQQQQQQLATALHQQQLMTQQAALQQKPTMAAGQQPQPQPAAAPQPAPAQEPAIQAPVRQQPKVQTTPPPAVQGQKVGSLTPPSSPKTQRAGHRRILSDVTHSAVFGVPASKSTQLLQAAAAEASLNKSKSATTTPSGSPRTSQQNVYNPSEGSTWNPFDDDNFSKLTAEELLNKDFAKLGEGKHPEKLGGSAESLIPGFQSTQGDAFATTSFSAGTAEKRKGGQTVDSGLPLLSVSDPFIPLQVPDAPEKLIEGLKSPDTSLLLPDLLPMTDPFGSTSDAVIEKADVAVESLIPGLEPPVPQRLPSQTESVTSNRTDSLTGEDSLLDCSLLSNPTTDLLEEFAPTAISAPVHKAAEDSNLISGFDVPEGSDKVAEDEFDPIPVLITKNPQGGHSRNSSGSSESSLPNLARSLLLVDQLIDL
Chain of Aurora kinase C (Q9UQB9 whole entry): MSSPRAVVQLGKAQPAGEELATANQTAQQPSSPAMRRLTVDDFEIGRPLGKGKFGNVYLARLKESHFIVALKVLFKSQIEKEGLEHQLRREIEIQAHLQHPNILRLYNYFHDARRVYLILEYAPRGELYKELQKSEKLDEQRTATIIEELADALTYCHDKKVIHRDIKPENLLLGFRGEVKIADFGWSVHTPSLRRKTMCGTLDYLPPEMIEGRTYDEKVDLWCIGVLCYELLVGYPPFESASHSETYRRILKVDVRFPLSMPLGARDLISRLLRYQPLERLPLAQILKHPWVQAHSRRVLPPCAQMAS

IC50 [1] [nM]	IC50 (Aurora kinase C) [nM]	IC50 [2] [nM]	remaining at 10 min, 0.5 µM [3] [%]	remaining at 10 min, 0.5 µM [4] [%]	IC50 [6] [nM]	Ki [7] [nM]	IC50 [8] [nM]	IC50 [9] [nM]	IC50 (Cytochrome P450 3A4) [nM]	remaining at 10 min, 0.5 µM [10] [%]	IC50 [11] [nM]	IC50 [12] [nM]	IC50 [13] [nM]	Structure (SMILES)	Activity [5] [%]
0.9	540	0.5	81	84	250	0.18	1600	180	> 20000	76	350	750	–	Cc1cc(-c2cc(C(F)F)c(OC[C@@](C)(N)CC(C)C)cn2)ccn1	85
2.7	–	0.8	93	92	490	–	–	260	> 20000	93	–	–	1700	CC(C)C[C@](C)(N)COc1cnc(-c2ccnc(Cl)c2)cc1C(F)F	81
